The subject of the assay is wheat NIM1 homologue mRNA transcripts. As to the kind of experiment: RNA gel blot of wheat RNA probed with the KL1/KL2 PCR product of the wheat NIM1 homologue. In kind it is in vivo. The conditions noted are these: polyA+ RNA from leaf tissue of young wheat plants, BTH-treated for 24 h. The source says:
The PCR product from wheat genomic DNA that is obtained with PCR primers KL1 and KL2 (SEQ ID NO:3 and SEQ ID NO:4, respectively) is used to probe gel blots of wheat RNA. […] The smaller transcript corresponds to the size detected in total RNA. […] The wheat “NIM loop”-described above is also used as a probe.

The text below walks through data of US20050132438A1, “Novel monocotylednous plant genes and uses thereof” (priority 2000, published 2005).

Each structure is given as a SMILES string.

Consider `CSC(=O)c1cccc2nnsc12` [BTH, benzo(1,2,3)thiadiazole-7-carbothioic acid S-methyl ester], for which the “abundance of the two NIM1 homologue transcripts, BTH-treated versus untreated plants” value is reported as “equal abundance”.
